PubChem BioAssay (NCI)
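Assay format: 96-well plates, 48-hour exposure. TGI: concentration producing complete growth inhibition.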

Key:
Test in all cases: NCI anticancer screen, dose series, 48 h
[1] = system: KM12 colon
[2] = system: OVCAR-3 ovarian
[3] = system: HOP-62 NSCLC
[4] = system: UO-31 renal
[5] = system: SNB-19 CNS
[6] = system: UACC-257 melanoma
[7] = system: EKVX NSCLC
[8] = system: LXFL 529 NSCLC
[9] = system: XF 498 CNS
[10] = system: UACC-62 melanoma
[11] = system: M14 melanoma
[12] = system: NCI-H522 lung
[13] = system: DLD-1 colon
[14] = system: SK-OV-3 ovarian
[15] = system: U251 CNS
[16] = system: HL-60(TB) leukemia
[17] = system: SF-295 CNS
[18] = system: NCI-H460 lung
[19] = system: SF-268 CNS
[20] = system: MOLT-4 leukemia
[21] = system: SF-539 CNS
[22] = system: SK-MEL-28 melanoma
[23] = system: RPMI-8226 leukemia
[24] = system: KM20L2 colon
[25] = system: RXF-631 renal
[26] = system: HCT-15 colon
[27] = system: HT29 colon
[28] = system: A498 renal
[29] = system: OVCAR-5 ovarian
[30] = system: DMS 273 small cell lung
[31] = system: DMS 114 small cell lung
[32] = system: OVCAR-8 ovarian
[33] = system: IGROV1 ovarian
[34] = system: HCT-116 colon
[35] = system: SK-MEL-5 melanoma
[36] = system: A549 NSCLC
[37] = system: M19-MEL melanoma
[38] = system: SNB-75 CNS
[39] = system: K-562 leukemia
[40] = system: HOP-92 NSCLC
[41] = system: SNB-78 CNS
[42] = system: OVCAR-4 ovarian
[43] = system: HCC-2998 colon
[44] = system: CAKI-1 renal
[45] = system: 786-0 renal
[46] = system: NCI-H226 lung
[47] = system: NCI-H23 lung
[48] = system: CCRF-CEM leukemia
[49] = system: LOX IMVI melanoma
[50] = system: RXF 393 renal
[51] = system: MALME-3M melanoma
[52] = system: SN12C renal
[53] = system: ACHN renal
[54] = system: SW-620 colon
[55] = system: HOP-18 NSCLC
[56] = system: COLO 205 colon

SMILES: CCc1ccccc1NC(=O)c1cccc([N+](=O)[O-])c1O
- TGI [1]: 48.6 µM
- TGI [2]: > 100 µM
- TGI [3]: 58 µM
- TGI [4]: 71.6 µM
- TGI [5]: > 100 µM
- TGI [6]: 77 µM
- TGI [7]: > 100 µM
- TGI [8]: > 100 µM
- TGI [9]: 57.9 µM
- TGI [10]: > 100 µM
- TGI [11]: > 100 µM
- TGI [12]: 62.6 µM
- TGI [13]: > 100 µM
- TGI [14]: > 100 µM
- TGI [15]: > 100 µM
- TGI [16]: > 100 µM
- TGI [17]: 32.2 µM
- TGI [18]: 71 µM
- TGI [19]: > 100 µM
- TGI [20]: > 100 µM
- TGI [21]: > 100 µM
- TGI [22]: > 100 µM
- TGI [23]: > 100 µM
- TGI [24]: 93.3 µM
- TGI [25]: > 100 µM
- TGI [26]: > 100 µM
- TGI [27]: > 100 µM
- TGI [28]: 88.2 µM
- TGI [29]: 65.1 µM
- TGI [30]: 86.2 µM
- TGI [31]: 51.5 µM
- TGI [32]: > 100 µM
- TGI [33]: > 100 µM
- TGI [34]: 87.5 µM
- TGI [35]: 33.9 µM
- TGI [36]: > 100 µM
- TGI [37]: 82.4 µM
- TGI [38]: 71.8 µM
- TGI [39]: > 100 µM
- TGI [40]: 45.4 µM
- TGI [41]: 94.2 µM
- TGI [42]: > 100 µM
- TGI [43]: > 100 µM
- TGI [44]: > 100 µM
- TGI [45]: > 100 µM
- TGI [46]: 88.7 µM
- TGI [47]: 72.5 µM
- TGI [48]: > 100 µM
- TGI [49]: 55.6 µM
- TGI [50]: 45.1 µM
- TGI [51]: > 100 µM
- TGI [52]: > 100 µM
- TGI [53]: 62 µM
- TGI [54]: > 100 µM
- TGI [55]: > 100 µM
- TGI [56]: 31.4 µM
